Measured values: patent publication US20250230193A1, “CYCLIC COMPOUND HAVING SELECTIVE KRAS INHIBITORY EFFECT ON HRAS AND NRAS” (CHUGAI SEIYAKU KABUSHIKI KAISHA, priority 2022, published 2025)

Experiments:
[1] = molecular target: GDP-bound HRAS wild-type protein (Homo sapiens, UniProt P01112); assay: Binding to HRAS by surface plasmon resonance (SPR), Single Cycle Kinetics; conditions: KD ratio HRAS/KRAS, class symbols
[2] = molecular target: GDP-bound NRAS wild-type protein (Homo sapiens, UniProt P01111); assay: Binding to NRAS by surface plasmon resonance (SPR), Single Cycle Kinetics; conditions: KD ratio NRAS/KRAS, class symbols
Chain of GDP-bound NRAS wild-type protein (P01111 whole entry): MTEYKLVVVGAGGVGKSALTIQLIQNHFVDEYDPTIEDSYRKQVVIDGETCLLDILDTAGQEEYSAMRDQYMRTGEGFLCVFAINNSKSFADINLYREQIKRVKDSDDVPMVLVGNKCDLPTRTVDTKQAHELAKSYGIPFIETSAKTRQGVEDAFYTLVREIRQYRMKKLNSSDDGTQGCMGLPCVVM

Chain of GDP-bound HRAS wild-type protein (P01112 whole entry): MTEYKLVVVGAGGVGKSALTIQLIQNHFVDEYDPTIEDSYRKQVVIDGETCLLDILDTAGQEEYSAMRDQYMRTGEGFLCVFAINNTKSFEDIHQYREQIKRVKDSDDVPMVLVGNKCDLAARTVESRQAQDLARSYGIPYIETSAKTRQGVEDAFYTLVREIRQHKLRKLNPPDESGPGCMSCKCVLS

SMILES | HRAS/KRAS (ratio of KD value with respect to GDP-bound HRAS wild-type protein to KD value with respect to KRAS) [1] | NRAS/KRAS (ratio of KD value with respect to GDP-bound NRAS wild-type protein to KD value with respect to KRAS) [2]
CCC(CC)[C@H]1C(=O)N(C)[C@H](C(=O)N(C)C)CC(=O)N(C)[C@@H](COC)C(=O)N[C@@H]([C@@H](C)CC)C(=O)N2CCC[C@H]2C(=O)N(C)[C@H]2C/C=C\CCN(C2=O)[C@@H](Cc2ccc(C(F)(F)F)cc2)C(=O)N(C)CC(=O)N[C@@H](CCc2ccc(Cl)c(Cl)c2)C(=O)N2C[C@H](OC(C)C)C[C@H]2C(=O)NC2(CC(C)(C)C2)C(=O)N1C [PP2639] | A (a compound having 10 or more and less than 20 is denoted as A) | AA (a compound having 20 or more is denoted as AA)
CCC[C@H]1C(=O)N[C@@H]([C@@H](C)CC)C(=O)N2CCC[C@H]2C(=O)N(C)[C@H]2C/C=C\CCN(C2=O)[C@@H](Cc2ccc(C(F)F)cc2)C(=O)N(C)CC(=O)N[C@@H](CCc2ccc(Cl)c(Cl)c2)C(=O)N2C[C@H](OC(C)C)C[C@H]2C(=O)NC2(CC(C)(C)C2)C(=O)N(C)[C@@H](C(CC)CC)C(=O)N(C)[C@H](C(=O)N(C)C)CC(=O)N1C [PP2640] | A (a compound having 10 or more and less than 20 is denoted as A) | AA (a compound having 20 or more is denoted as AA)
CCC[C@H]1C(=O)N[C@@H]([C@@H](C)CC)C(=O)N2CCC[C@H]2C(=O)N(C)[C@H]2C/C=C\CCN(C2=O)[C@@H](Cc2ccc(C)cc2)C(=O)N(C)CC(=O)N[C@@H](CCc2ccc(Cl)c(Cl)c2)C(=O)N2C[C@H](OC(C)C)C[C@H]2C(=O)NC2(CC(C)(C)C2)C(=O)N(C)[C@@H](C(CC)CC)C(=O)N(C)[C@H](C(=O)N(C)C)CC(=O)N1C [PP2641] | A (a compound having 10 or more and less than 20 is denoted as A) | AA (a compound having 20 or more is denoted as AA)
CCC(CC)[C@H]1C(=O)N(C)[C@H](C(=O)N(C)C)CC(=O)N(C)[C@@H](COC)C(=O)N[C@@H]([C@@H](C)CC)C(=O)N(C)CC(=O)N(C)[C@H]2C/C=C\CCN(C2=O)[C@@H](Cc2ccc(C(F)(F)F)cc2)C(=O)N(C)CC(=O)N[C@@H](CCc2ccc(Cl)c(Cl)c2)C(=O)N2C[C@H](OC3CCC3)C[C@H]2C(=O)NC2(CC(C)(C)C2)C(=O)N1C [PP2642] | A (a compound having 10 or more and less than 20 is denoted as A) | AA (a compound having 20 or more is denoted as AA)
CCC[C@H]1C(=O)N[C@@H]([C@@H](C)CC)C(=O)N(C)CC(=O)N(C)[C@H]2C/C=C\CCN(C2=O)[C@@H](Cc2ccc(C(F)F)cc2)C(=O)N(C)CC(=O)N[C@@H](CCc2ccc(Cl)c(Cl)c2)C(=O)N2C[C@H](OC3CCC3)C[C@H]2C(=O)NC2(CC(C)(C)C2)C(=O)N(C)[C@@H](C(CC)CC)C(=O)N(C)[C@H](C(=O)N(C)C)CC(=O)N1C [PP2643] | A (a compound having 10 or more and less than 20 is denoted as A) | AA (a compound having 20 or more is denoted as AA)
CCC[C@H]1C(=O)N[C@@H]([C@@H](C)CC)C(=O)N(C)CC(=O)N(C)[C@H]2C/C=C\CCN(C2=O)[C@@H](Cc2ccc(C)cc2)C(=O)N(C)CC(=O)N[C@@H](CCc2ccc(Cl)c(Cl)c2)C(=O)N2C[C@H](OC3CCC3)C[C@H]2C(=O)NC2(CC(C)(C)C2)C(=O)N(C)[C@@H](C(CC)CC)C(=O)N(C)[C@H](C(=O)N(C)C)CC(=O)N1C [PP2644] | A (a compound having 10 or more and less than 20 is denoted as A) | AA (a compound having 20 or more is denoted as AA)
CCC(CC)[C@H]1C(=O)N(C)[C@H](C(=O)N(C)C)CC(=O)N(C)[C@@H](COC)C(=O)N[C@@H]([C@@H](C)CC)C(=O)N2CCC[C@H]2C(=O)N(C)[C@H]2C/C=C\CCN(C2=O)[C@@H](Cc2ccc(C(F)(F)F)cc2)C(=O)N(C)CC(=O)N[C@@H](CCc2ccc(Cl)c(Cl)c2)C(=O)N2C[C@H](OC3CCC3)C[C@H]2C(=O)NC2(CC(C)(C)C2)C(=O)N1C [PP2645] | A (a compound having 10 or more and less than 20 is denoted as A) | AA (a compound having 20 or more is denoted as AA)
CCC[C@H]1C(=O)N[C@@H]([C@@H](C)CC)C(=O)N2CCC[C@H]2C(=O)N(C)[C@H]2C/C=C\CCN(C2=O)[C@@H](Cc2ccc(C(F)F)cc2)C(=O)N(C)CC(=O)N[C@@H](CCc2ccc(Cl)c(Cl)c2)C(=O)N2C[C@H](OC3CCC3)C[C@H]2C(=O)NC2(CC(C)(C)C2)C(=O)N(C)[C@@H](C(CC)CC)C(=O)N(C)[C@H](C(=O)N(C)C)CC(=O)N1C [PP2646] | A (a compound having 10 or more and less than 20 is denoted as A) | AA (a compound having 20 or more is denoted as AA)
CCC(CC)[C@H]1C(=O)N(C)[C@H](C(=O)N(C)C)CC(=O)N(C)[C@@H](COC)C(=O)N[C@@H]([C@@H](C)CC)C(=O)N(C)CC(=O)N(C)[C@H]2C/C=C\CCN(C2=O)[C@@H](Cc2ccc(C(F)(F)F)cc2)C(=O)N(C)CC(=O)N[C@@H](CCc2ccc(Cl)c(Cl)c2)C(=O)N2C[C@H](OC3CCCC3)C[C@H]2C(=O)NC2(CC(C)(C)C2)C(=O)N1C [PP2648] | A (a compound having 10 or more and less than 20 is denoted as A) | A (a compound having 10 or more and less than 20 is denoted as A)
CCC(CC)[C@H]1C(=O)N(C)[C@H](C(=O)N(C)C)CC(=O)N(C)[C@@H](COC)C(=O)N[C@@H]([C@@H](C)CC)C(=O)N(C)CC(=O)N(C)[C@H]2C/C=C\CCN(C2=O)[C@@H](Cc2ccc(C(F)F)cc2)C(=O)N(C)CC(=O)N[C@@H](CCc2ccc(Cl)c(Cl)c2)C(=O)N2C[C@H](OC3CCCC3)C[C@H]2C(=O)NC2(CC(C)(C)C2)C(=O)N1C [PP2649] | A (a compound having 10 or more and less than 20 is denoted as A) | AA (a compound having 20 or more is denoted as AA)
CCC(CC)[C@H]1C(=O)N(C)[C@H](C(=O)N(C)C)CC(=O)N(C)[C@@H](COC)C(=O)N[C@@H]([C@@H](C)CC)C(=O)N2CCC[C@H]2C(=O)N(C)[C@H]2C/C=C\CCN(C2=O)[C@@H](Cc2ccc(C(F)(F)F)cc2)C(=O)N(C)CC(=O)N[C@@H](CCc2ccc(Cl)c(Cl)c2)C(=O)N2C[C@H](OC3CCCC3)C[C@H]2C(=O)NC2(CC(C)(C)C2)C(=O)N1C [PP2651] | A (a compound having 10 or more and less than 20 is denoted as A) | AA (a compound having 20 or more is denoted as AA)
CCC(CC)[C@H]1C(=O)N(C)[C@H](C(=O)N(C)C)CC(=O)N(C)[C@@H](COC)C(=O)N[C@@H]([C@@H](C)CC)C(=O)N2CCC[C@H]2C(=O)N(C)[C@H]2C/C=C\CCN(C2=O)[C@@H](Cc2ccc(C(F)F)cc2)C(=O)N(C)CC(=O)N[C@@H](CCc2ccc(Cl)c(Cl)c2)C(=O)N2C[C@H](OC3CCCC3)C[C@H]2C(=O)NC2(CC(C)(C)C2)C(=O)N1C [PP2652] | A (a compound having 10 or more and less than 20 is denoted as A) | AA (a compound having 20 or more is denoted as AA)
CC[C@H](C)[C@@H]1NC(=O)[C@H](COC)N(C)C(=O)C[C@@H](C(=O)N(C)C)N(C)C(=O)[C@H](C2CCCCC2)N(C)C(=O)C2(CC(C)(C)C2)NC(=O)[C@@H]2C[C@@H](OC(C)C)CN2C(=O)[C@H](CCc2cc(F)c(C(F)(F)F)c(F)c2)NC(=O)CN(C)C(=O)[C@H](Cc2ccc(C(F)(F)F)cc2)N2CC/C=C\C[C@@H](C2=O)N(C)C(=O)CN(C)C1=O [PP2654] | A (a compound having 10 or more and less than 20 is denoted as A) | A (a compound having 10 or more and less than 20 is denoted as A)
CC[C@H](C)[C@@H]1NC(=O)[C@H](COC)N(C)C(=O)C[C@@H](C(=O)N(C)C)N(C)C(=O)[C@H](C2CCCCC2)N(C)C(=O)C2(CC(C)(C)C2)NC(=O)[C@@H]2C[C@@H](OC3CCC3)CN2C(=O)[C@H](CCc2cc(F)c(C(F)(F)F)c(F)c2)NC(=O)CN(C)C(=O)[C@H](Cc2ccc(C(F)(F)F)cc2)N2CC/C=C\C[C@@H](C2=O)N(C)C(=O)CN(C)C1=O [PP2655] | A (a compound having 10 or more and less than 20 is denoted as A) | AA (a compound having 20 or more is denoted as AA)
CC[C@H](C)[C@@H]1NC(=O)[C@H](COC)N(C)C(=O)C[C@@H](C(=O)N(C)C)N(C)C(=O)[C@H](C2CCCCC2)N(C)C(=O)C2(CC(C)(C)C2)NC(=O)[C@@H]2C[C@@H](OC3CCCC3)CN2C(=O)[C@H](CCc2cc(F)c(C(F)(F)F)c(F)c2)NC(=O)CN(C)C(=O)[C@H](Cc2ccc(C(F)(F)F)cc2)N2CC/C=C\C[C@@H](C2=O)N(C)C(=O)CN(C)C1=O [PP2656] | B (a compound having 3 or more and less than 10 is denoted as B) | A (a compound having 10 or more and less than 20 is denoted as A)
